Data as given in patent US9902722B2, “Biaryl kinase inhibitors” (BRISTOL-MYERS SQUIBB COMPANY, priority 2014, dated 2018).

The compounds below were run against GST-Xa-hAAK1 (Homo sapiens (Human), UniProt Q2M2I8) (assay: AAK1 Kinase Assay). Details: bacterially expressed GST-Xa-hAAK1 3.5 nM; ATP 22 μM; peptide substrate 1.5 μM; 3 hours at room temperature; Caliper LabChip 3000.
Format: biochemical
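Note: each compound tested across an eleven-point concentration series, with IC50 obtained through non-linear regression fitting.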
Description: The assays were performed in U-bottom 384-well plates. […] The reactions were initiated by the combination of bacterially expressed, GST-Xa-hAAK1 with substrates and test compounds. The reactions were incubated at room temperature for 3 hours and terminated by adding 60 μl of 35 mM EDTA buffer to each sample. […] Compounds were dissolved at 10 mM in dimethylsulfoxide (DMSO) and evaluated at eleven concentrations. IC50 values were derived by non-linear regression analysis.

GST-Xa-hAAK1, sequence (Q2M2I8 whole entry): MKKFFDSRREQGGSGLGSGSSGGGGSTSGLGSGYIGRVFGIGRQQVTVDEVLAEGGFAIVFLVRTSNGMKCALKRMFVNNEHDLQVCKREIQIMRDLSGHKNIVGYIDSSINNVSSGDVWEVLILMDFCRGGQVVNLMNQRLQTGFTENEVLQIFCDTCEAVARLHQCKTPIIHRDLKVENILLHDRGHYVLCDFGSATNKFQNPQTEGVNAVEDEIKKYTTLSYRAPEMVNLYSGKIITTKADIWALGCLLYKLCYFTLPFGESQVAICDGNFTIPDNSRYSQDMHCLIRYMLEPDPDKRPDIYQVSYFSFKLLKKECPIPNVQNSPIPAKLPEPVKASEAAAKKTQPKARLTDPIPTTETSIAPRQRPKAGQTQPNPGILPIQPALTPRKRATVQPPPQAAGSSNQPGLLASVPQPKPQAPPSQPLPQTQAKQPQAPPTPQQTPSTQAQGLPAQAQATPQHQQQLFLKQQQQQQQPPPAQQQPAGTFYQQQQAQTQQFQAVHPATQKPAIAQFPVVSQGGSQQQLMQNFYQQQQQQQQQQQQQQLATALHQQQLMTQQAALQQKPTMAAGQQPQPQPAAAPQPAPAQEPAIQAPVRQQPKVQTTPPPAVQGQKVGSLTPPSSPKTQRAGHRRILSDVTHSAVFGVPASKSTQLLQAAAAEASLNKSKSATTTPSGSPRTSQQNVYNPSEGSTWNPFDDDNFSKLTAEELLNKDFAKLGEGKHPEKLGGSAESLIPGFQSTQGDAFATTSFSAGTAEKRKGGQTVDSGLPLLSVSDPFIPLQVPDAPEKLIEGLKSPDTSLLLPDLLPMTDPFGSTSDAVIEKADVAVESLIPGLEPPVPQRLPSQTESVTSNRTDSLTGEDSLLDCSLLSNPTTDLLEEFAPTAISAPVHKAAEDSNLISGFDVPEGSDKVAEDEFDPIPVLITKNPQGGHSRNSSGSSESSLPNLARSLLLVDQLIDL

SMILES	IC50 [nM]
COC(=O)Nc1cc(-c2cc(C(F)F)c(OC[C@@](C)(N)CC(C)C)cn2)ccn1 [Example 120, (S)-methyl (5-((2-amino-2,4-dimethylpentyl)oxy)-4-(difluoromethyl)-[2,4′-bipyridin]-2′-yl)carbamate]	0.51
CC(C)C[C@](C)(N)COc1ccc(-c2ccnc(C(F)F)c2)cc1C#N [Example 36, (S)-2-((2-amino-2,4-dimethylpentyl)oxy)-5-(2-(difluoromethyl)pyridin-4-yl)benzonitrile]	0.89
CC(C)C[C@](C)(N)COc1ncc(-c2ccnc(Cl)c2)cc1C(F)F [Example 193, (S)-1-((2′-chloro-5-(difluoromethyl)-[3,4′-bipyridin]-6-yl)oxy)-2,4-dimethylpentan-2-amine]	2.9
COC(=O)Nc1cc(-c2cc(C(F)F)c(OC[C@@](N)(CF)CC(C)C)cn2)ccn1 [Example 182, (R)-methyl (5-((2-amino-2-(fluoromethyl)-4-methylpentyl)oxy)-4-(difluoromethyl)-[2,4′-bipyridin]-2′-yl)carbamate]	8.7
CC(C)C[C@](C)(N)COc1ccc(-c2ccnc(C(F)F)c2)cc1C(F)F [Example 37, (S)-1-(2-(difluoromethyl)-4-(2-(difluoromethyl)pyridin-4-yl)phenoxy)-2,4-dimethylpentan-2-amine]	0.51
CC(=O)Nc1cc(-c2ccc(OC[C@@H](N)CC(C)C)c(C#N)c2)ccn1 [Example 3, (S)—N-(4-(4-((2-amino-4-methylpentyl)oxy)-3-cyanophenyl)pyridin-2-yl)acetamide]	0.3
Cc1nccc(-c2ccc(OC[C@@](C)(N)CC(C)C)c(C(F)(F)F)c2)c1C(=O)O [Example 111, (S)-4-(4-((2-amino-2,4-dimethylpentyl)oxy)-3-(trifluoromethyl)phenyl)-2-methylnicotinic acid]	650
CC(C)C[C@H](N)COc1ccc(-c2ccnc3ccccc23)cc1-c1ccno1 [Example 110, (S)-1-(2-(isoxazol-5-yl)-4-(quinolin-4-yl)phenoxy)-4-methylpentan-2-amine]	3.5
Cc1c(-c2ccc(OC[C@@](C)(N)CC(C)C)c(C(F)(F)F)c2)ccnc1F [Example 41, (S)-1-(4-(2-fluoro-3-methylpyridin-4-yl)-2-(trifluoromethyl)phenoxy)-2,4-dimethylpentan-2-amine]	3.8
COC(=O)Nc1cc(-c2cnc(OC[C@@](C)(N)CC(C)C)c(C(F)(F)F)c2)ccn1 [Example 220, (S)-methyl (6-((2-amino-2,4-dimethylpentyl)oxy)-5-(trifluoromethyl)-[3,4′-bipyridin]-2′-yl)carbamate]	0.38
CC(C)C[C@](C)(N)COc1ccc(-c2ccnc3[nH]ccc23)cc1C(F)(F)F [Example 84, (S)-1-(4-(1H-pyrrolo[2,3-b]pyridin-4-yl)-2-(trifluoromethyl)phenoxy)-2,4-dimethylpentan-2-amine]	2.2
COC(=O)Nc1cc(-c2ccc(OC[C@@](C)(N)CC(C)C)c(C)n2)ccn1 [Example 64, (S)-methyl (5-((2-amino-2,4-dimethylpentyl)oxy)-6-methyl-[2,4′-bipyridin]-2′-yl)carbamate]	1.1
CC(C)C[C@](C)(N)COc1ccc(-c2ccnc3ccc(F)cc23)cc1C(F)F [Example 116, (S)-1-(2-(difluoromethyl)-4-(6-fluoroquinolin-4-yl)phenoxy)-2,4-dimethylpentan-2-amine]	0.93
COC(=O)Nc1cc(-c2cc(C(F)F)c(OC[C@@](C)(O)CC(C)C)cn2)ccn1 [Example 177, (S)-methyl (4-(difluoromethyl)-5-((2-hydroxy-2,4-dimethylpentyl)oxy)-[2,4′-bipyridin]-2′-yl)carbamate]	8.7
COC(=O)Nc1cc(-c2cc(OC)c(OC[C@@](C)(N)CC(C)C)cn2)ccn1 [Example 206, (S)-methyl (5-((2-amino-2,4-dimethylpentyl)oxy)-4-methoxy-[2,4′-bipyridin]-2′-yl)carbamate]	4.3
COC(=O)Nc1nccc(-c2ccc(OC[C@@](C)(N)CC(C)C)c(C#N)c2)c1F [Example 100, (S)-methyl (4-(4-((2-amino-2,4-dimethylpentyl)oxy)-3-cyanophenyl)-3-fluoropyridin-2-yl)carbamate]	6.8
COC(=O)Nc1cc(-c2ccc(OC[C@@](C)(N)CC(C)C)c(S(C)(=O)=O)c2)ccn1 [Example 113, (S)-methyl (4-(4-((2-amino-2,4-dimethylpentyl)oxy)-3-(methylsulfonyl)phenyl)pyridin-2-yl)carbamate]	43
CC(C)C[C@](C)(N)COc1ccc(-c2ccnc3ccccc23)cc1S(C)(=O)=O [Example 115, (S)-2,4-dimethyl-1-(2-(methylsulfonyl)-4-(quinolin-4-yl)phenoxy)pentan-2-amine]	13
CC(C)C[C@](C)(N)COc1ccc(-c2ccnc3ccccc23)nc1C(F)F [Example 118, (S)-1-((2-(difluoromethyl)-6-(quinolin-4-yl)pyridin-3-yl)oxy)-2,4-dimethylpentan-2-amine]	0.85
CC(C)C[C@](C)(N)COc1ccc(-c2ccnc3cc(F)cc(F)c23)cc1C(F)(F)F [Example 72, (S)-1-(4-(5,7-difluoroquinolin-4-yl)-2-(trifluoromethyl)phenoxy)-2,4-dimethylpentan-2-amine]	0.53
CC(C)C[C@](C)(N)COc1cnc(-c2ccnc3cc(F)ccc23)cc1C(F)F [Example 131, (S)-1-((4-(difluoromethyl)-6-(7-fluoroquinolin-4-yl)pyridin-3-yl)oxy)-2,4-dimethylpentan-2-amine]	0.82
Cc1cc(-c2ccnc3cc(F)cc(F)c23)ncc1OC[C@@](C)(N)CC(C)C [Example 226, (S)-1-((6-(5,7-difluoroquinolin-4-yl)-4-methylpyridin-3-yl)oxy)-2,4-dimethylpentan-2-amine]	0.93

Further compounds by falling IC50, results first:

IC50 [nM]	SMILES
1400	Cc1cc(-c2ccc(OC[C@@](C)(N)CC(C)C)c(S(C)(=O)=O)c2)ccn1 [Example 114, (S)-2,4-dimethyl-1-(4-(2-methylpyridin-4-yl)-2-(methylsulfonyl)phenoxy)pentan-2-amine]
1020	Cc1cc(-c2cc(C)c(OC[C@@](C)(N)CC(C)C)c(C)n2)ccn1 [Example 212, (S)-2,4-dimethyl-1-((2′,4,6-trimethyl-[2,4′-bipyridin]-5-yl)oxy)pentan-2-amine]
42	COC(=O)Nc1cc(-c2ccc(OC[C@](C)(N)CC(C)C)c(C)n2)ccn1 [Example 173, (R)-methyl (5-((2-amino-2,4-dimethylpentyl)oxy)-6-methyl-[2,4′-bipyridin]-2′-yl)carbamate]
24	COC(=O)Nc1cc(-c2ccc(OCC(C)(N)CC(C)C)cn2)ccn1 (stereo not drawn) [Example 63, methyl (5-((2-amino-2,4-dimethylpentyl)oxy)-[2,4′-bipyridin]-2′-yl)carbamate]
19	COc1cc(-c2ccnc(C(F)F)c2)ncc1OC[C@@](C)(N)CC(C)C [Example 207, (S)-1-((2′-(difluoromethyl)-4-methoxy-[2,4′-bipyridin]-5-yl)oxy)-2,4-dimethylpentan-2-amine]
12.1	Cc1cc(-c2ccc(OC[C@@](C)(N)CC(C)C)c(F)c2)ccn1 [Example 91, (S)-1-(2-fluoro-4-(2-methylpyridin-4-yl)phenoxy)-2,4-dimethylpentan-2-amine]
2.8	CC(C)C[C@H](N)COc1ccc(-c2ccnc(N)c2)cc1C#N [Example 4, (S)-2-((2-amino-4-methylpentyl)oxy)-5-(2-aminopyridin-4-yl)benzonitrile]
2.7	CC(=O)Nc1cc(-c2ccc(OC[C@@H](N)CC(C)C)c(F)c2)ccn1 [Example 1, (S)—N-(4-(4-((2-amino-4-methylpentyl)oxy)-3-fluorophenyl)pyridin-2-yl)acetamide]
2.6	COC(=O)Nc1cc(-c2cc(C)c(OC[C@@](C)(N)CC(C)C)cn2)ccn1 [Example 68, (S)-methyl (5-((2-amino-2,4-dimethylpentyl)oxy)-4-methyl-[2,4′-bipyridin]-2′-yl)carbamate]
2.1	Cc1cc(-c2cc(Cl)c(OC[C@@](C)(N)CC(C)C)cn2)ccn1 [Example 238, (S)-1-((4-chloro-2′-methyl-[2,4′-bipyridin]-5-yl)oxy)-2,4-dimethylpentan-2-amine]
1.4	COC(=O)Nc1cc(-c2cc(Cl)c(OC[C@@](C)(N)CC(C)C)cn2)ccn1 [Example 237, (S)-methyl (5-((2-amino-2,4-dimethylpentyl)oxy)-4-chloro-[2,4′-bipyridin]-2′-yl)carbamate]
0.92	CC(C)C[C@](C)(N)COc1cnc(-c2ccnc3ccc(C(F)(F)F)cc23)cc1C(F)F [Example 133]
0.8	Cc1nccc(-c2ccc(OC[C@@](C)(N)CC(C)C)c(C(F)F)n2)c1F [Example 160, (S)-1-((6-(difluoromethyl)-3′-fluoro-2′-methyl-[2,4′-bipyridin]-5-yl)oxy)-2,4-dimethylpentan-2-amine]
0.76	CC(=O)Nc1cc(-c2ccc(OC[C@@](C)(N)CC(C)C)c(C(F)F)c2)ccn1 [Example 23, (S)—N-(4-(4-((2-amino-2,4-dimethylpentyl)oxy)-3-(difluoromethyl)phenyl)pyridin-2-yl)acetamide]
0.67	COC(=O)Nc1cc(-c2ccc(OCC(C)(N)CC(C)C)c(Cl)c2)ccn1 (stereo not drawn) [Example 29, methyl (4-(4-((2-amino-2,4-dimethylpentyl)oxy)-3-chlorophenyl)pyridin-2-yl)carbamate]
0.36	CC(C)C[C@](C)(N)COc1cnc(-c2ccnc3ccc(F)cc23)cc1Cl [Example 235, (S)-1-((4-chloro-6-(6-fluoroquinolin-4-yl)pyridin-3-yl)oxy)-2,4-dimethylpentan-2-amine]
0.19	COC(=O)Nc1cc(-c2cc(C(F)(F)F)c(OC[C@@](C)(N)CC(C)C)cn2)ccn1 [Example 146, (S)-methyl (5-((2-amino-2,4-dimethylpentyl)oxy)-4-(trifluoromethyl)-[2,4′-bipyridin]-2′-yl)carbamate]
